We go through six molecules from patent publication US20230295260A1, “GLP RECEPTOR AGONISTS” (HEPTARES THERAPEUTICS LIMITED, priority 2020, published 2023).

The target in one experiment is T1, human GLP2 receptor (Homo sapiens, UniProt O95838).
T1 sequence (O95838 1-553): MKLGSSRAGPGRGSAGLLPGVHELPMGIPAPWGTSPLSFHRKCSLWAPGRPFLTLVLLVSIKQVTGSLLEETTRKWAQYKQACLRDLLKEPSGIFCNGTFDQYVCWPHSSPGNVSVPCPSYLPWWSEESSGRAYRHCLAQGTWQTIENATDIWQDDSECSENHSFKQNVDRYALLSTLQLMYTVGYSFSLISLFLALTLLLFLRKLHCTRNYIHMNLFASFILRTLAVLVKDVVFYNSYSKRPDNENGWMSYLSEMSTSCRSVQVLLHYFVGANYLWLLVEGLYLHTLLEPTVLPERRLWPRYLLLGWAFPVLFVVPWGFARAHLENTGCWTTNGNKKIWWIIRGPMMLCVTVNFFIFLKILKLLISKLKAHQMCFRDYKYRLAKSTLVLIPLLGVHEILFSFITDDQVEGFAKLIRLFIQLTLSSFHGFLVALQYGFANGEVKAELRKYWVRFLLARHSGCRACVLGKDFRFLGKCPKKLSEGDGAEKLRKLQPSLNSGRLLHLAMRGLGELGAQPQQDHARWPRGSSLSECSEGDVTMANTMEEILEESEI
As to the kind of experiment: cAMP accumulation assay (HTRF), functional agonism of human GLP2 receptor in HEK cells.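 As to all read-outs here: HEK cells transduced via BacMam to express human GLP2 receptor, agonist-stimulated cAMP measured by HTRF after 45 min at 37 °C in HBSS with 0.5 mM IBMX.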 The settings on record: for Emax: HEK293, read-out: Human GLP-2R agonist cAMP Emax.

For a further experiment, the target named is T2, human GLP1 receptor (Homo sapiens, UniProt P43220).
T2 construct: expressed in transfected cells; host or cells: HEK cells, BacMam virus transduction
The experiment is described as follows: cAMP accumulation assay (HTRF), functional agonism of human GLP1 receptor in HEK cells. Conditions: HEK cells, human GLP1 receptor BacMam, 45 min 37° C.; for Emax: HEK293, read-out: Human GLP-1R agonist cAMP Emax; for EC50: read-out: Human GLP-1R agonist cAMP pEC50 (converted). Format: cell-based. On the technique in general: cAMP levels reflect the balance of adenylyl cyclase and phosphodiesterase activity.

Non-standard residues stand in square brackets, D forms with d. Residues, ends and D or L forms follow the SMILES beside them. *: point of attachment. Malonyl(2,2-Me2,histaminyl) = CC(C)(C(=O)NCCc1cnc[nH]1)C(=O)*; Ala(1H-tetrazol-5-yl) = N[C@@H](Cc1nnn[nH]1)C(=O)O; αMeF = C[C@](N)(Cc1ccccc1)C(=O)O; Nle = CCCC[C@H](N)C(=O)O; Aib = CC(C)(N)C(=O)O; Alloc = C=CCOC(=O)*

T2 sequence (P43220 24-463): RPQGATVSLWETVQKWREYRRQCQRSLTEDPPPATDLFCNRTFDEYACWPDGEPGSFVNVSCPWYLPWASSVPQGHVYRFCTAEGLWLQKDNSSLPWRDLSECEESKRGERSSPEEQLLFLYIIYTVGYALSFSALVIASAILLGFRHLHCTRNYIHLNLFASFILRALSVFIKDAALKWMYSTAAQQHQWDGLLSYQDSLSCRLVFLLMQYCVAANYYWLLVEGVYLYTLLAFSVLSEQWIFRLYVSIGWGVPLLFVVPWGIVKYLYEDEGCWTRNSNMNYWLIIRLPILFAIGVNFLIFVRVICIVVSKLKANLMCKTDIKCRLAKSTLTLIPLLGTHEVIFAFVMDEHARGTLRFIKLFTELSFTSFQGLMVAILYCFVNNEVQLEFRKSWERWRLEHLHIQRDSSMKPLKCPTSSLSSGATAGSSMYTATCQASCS
Description for human GLP2 receptor: The functional activity of the peptides were assessed using a HTRF cAMP assay. pEC50 values are quoted.
cAMP production upon agonist stimulation of human GLP2 or GLP1 receptor was assessed utilizing HiRange cAMP kit (Cisbio). In brief, HEK cells were infected with either human GLP2 or GLP1 receptor BacMam virus for 24 hours and frozen for later use in the assay. […] Cells were prepared in the assay buffer (HBSS (Lonza) supplemented with 0.5 mM IBMX (Tocris)). After 45 min incubation at 37° C., the reaction was stopped by addition of the HTRF detection reagents in the lysis buffer provided in the kit.

As a reminder, the Emax is the maximal effect, on the per cent scale that the assay sets. For the molecule `C=CCOC(=O)NCCCC[C@H](NC(=O)[C@H](CC(C)C)NC(=O)[C@H](CC(=O)O)NC(=O)[C@H](CC(C)C)NC(=O)[C@@H](NC(=O)[C@@H](NC(=O)[C@@H](Cc1ccccc1)NC(=O)[C@H](CCCC)NC(=O)[C@H](CCC(=O)O)NC(=O)[C@H](CC(=O)O)NC(=O)[C@H](CO)NC(=O)[C@H](Cc1ccccc1)NC(=O)[C@H](CO)NC(=O)CNC(=O)[C@H](Cc1nn[nH]n1)NC(=O)C(C)(C)C(=O)NCCc1c[nH]cn1)[C@@H](C)O)[C@@H](C)CC)C(=O)N[C@@H](C)C(=O)N[C@@H](C)C(=O)NC(C)(C)C(=O)N[C@@H](CC(=O)O)C(=O)N[C@@H](Cc1ccccc1)C(=O)N[C@H](C(=O)N[C@@H](CC(N)=O)C(=O)N[C@@H](Cc1c[nH]c2ccccc12)C(=O)N[C@@H](CC(C)C)C(=O)N[C@H](C(=O)N[C@@H](CCC(N)=O)C(=O)N[C@H](C(=O)N[C@@H](CCCCN)C(=O)N[C@H](C(=O)N[C@H](C(=O)N[C@@H](Cc1ccccc1)C(N)=O)[C@@H](C)O)[C@@H](C)CC)[C@@H](C)O)[C@@H](C)CC)[C@@H](C)CC` [Example 9] ({Malonyl(2,2-Me2,histaminyl)}-[Ala(1H-tetrazol-5-yl)]GSFSDE[Nle][dF]TILDLK(Alloc)AA[Aib]DFINWLIQTKITF-NH2), on human GLP2 receptor, the EC50 was 12.6 pM and the Emax was found to be 102%. For the same molecule, on human GLP1 receptor, the Emax was 94.1% and the EC50 was 20000 pM.

`C=CCOC(=O)NCCCC[C@H](NC(=O)[C@H](CC(C)C)NC(=O)[C@H](CC(=O)O)NC(=O)[C@H](CC(C)C)NC(=O)[C@@H](NC(=O)[C@@H](NC(=O)[C@@H](Cc1ccccc1)NC(=O)[C@H](CCCC)NC(=O)[C@H](CCC(=O)O)NC(=O)[C@H](CC(=O)O)NC(=O)[C@H](CO)NC(=O)[C@](C)(Cc1ccccc1)NC(=O)[C@H](CO)NC(=O)CNC(=O)[C@H](Cc1nn[nH]n1)NC(=O)C(C)(C)C(=O)NCCc1c[nH]cn1)[C@@H](C)O)[C@@H](C)CC)C(=O)N[C@@H](C)C(=O)N[C@@H](C)C(=O)N[C@@H](CCCCN)C(=O)N[C@@H](CC(=O)O)C(=O)N[C@@H](Cc1ccccc1)C(=O)N[C@H](C(=O)N[C@@H](CC(N)=O)C(=O)N[C@@H](Cc1c[nH]c2ccccc12)C(=O)N[C@@H](CC(C)C)C(=O)N[C@H](C(=O)N[C@@H](CCC(N)=O)C(=O)N[C@H](C(=O)N[C@@H](CCCCN)C(=O)N[C@H](C(=O)N[C@H](C(=O)N[C@@H](CC(=O)O)C(N)=O)[C@@H](C)O)[C@@H](C)CC)[C@@H](C)O)[C@@H](C)CC)[C@@H](C)CC` [Example 10] ({Malonyl(2,2-Me2,histaminyl)}-[Ala(1H-tetrazol-5-yl)]GS[αMeF]SDE[Nle][dF]TILDLK(Alloc)AAKDFINWLIQTKITD-NH2): the EC50 on human GLP2 receptor is 10 pM; at human GLP1 receptor, 100 pM. Besides, the Emax was determined as 101% at human GLP2 receptor and 96.4% at human GLP1 receptor.

On to `C=CCOC(=O)NCCCC[C@H](NC(=O)[C@H](CC(C)C)NC(=O)[C@H](CC(=O)O)NC(=O)[C@H](CC(C)C)NC(=O)[C@@H](NC(=O)[C@@H](NC(=O)[C@@H](Cc1ccccc1)NC(=O)[C@H](CCCC)NC(=O)[C@H](CCC(=O)O)NC(=O)[C@H](CC(=O)O)NC(=O)[C@H](CO)NC(=O)[C@](C)(Cc1ccccc1)NC(=O)[C@H](CO)NC(=O)[C@@H](C)NC(=O)[C@H](Cc1nn[nH]n1)NC(=O)C(C)(C)C(=O)NCCc1c[nH]cn1)[C@@H](C)O)[C@@H](C)CC)C(=O)NC(C)(C)C(=O)N[C@@H](C)C(=O)N[C@@H](CCCCN)C(=O)N[C@@H](CC(=O)O)C(=O)N[C@@H](Cc1ccccc1)C(=O)N[C@H](C(=O)N[C@@H](CC(N)=O)C(=O)N[C@@H](Cc1c[nH]c2ccccc12)C(=O)N[C@@H](CC(C)C)C(=O)N[C@H](C(=O)N[C@@H](CCC(N)=O)C(=O)N[C@H](C(=O)N[C@@H](CCCCN)C(=O)N[C@H](C(=O)N[C@H](C(=O)N[C@@H](CC(=O)O)C(N)=O)[C@@H](C)O)[C@@H](C)CC)[C@@H](C)O)[C@@H](C)CC)[C@@H](C)CC` [Example 11] ({Malonyl(2,2-Me2,histaminyl)}-[Ala(1H-tetrazol-5-yl)][dA]S[αMeF]SDE[Nle][dF]TILDLK(Alloc)[Aib]AKDFINWLIQTKITD-NH2), for which, at human GLP2 receptor, the EC50 was 12.6 pM and the Emax turned out to be 102%. At human GLP1 receptor, the Emax was found to be 95.4% and the EC50 was 1580 pM.

As to `C=CCOC(=O)NCCCC[C@H](NC(=O)[C@H](C)NC(=O)[C@H](C)NC(=O)[C@H](CCCCNC(=O)OCC=C)NC(=O)[C@H](CC(C)C)NC(=O)[C@H](CC(=O)O)NC(=O)[C@H](CC(C)C)NC(=O)[C@@H](NC(=O)[C@@H](NC(=O)[C@@H](Cc1ccccc1)NC(=O)[C@H](CCCC)NC(=O)[C@H](CCC(=O)O)NC(=O)[C@H](CC(=O)O)NC(=O)[C@H](CO)NC(=O)[C@H](Cc1ccccc1)NC(=O)[C@H](CO)NC(=O)CNC(=O)[C@H](Cc1nn[nH]n1)NC(=O)C(C)(C)C(=O)NCCc1c[nH]cn1)[C@@H](C)O)[C@@H](C)CC)C(=O)N[C@@H](CC(=O)O)C(=O)N[C@@H](Cc1ccccc1)C(=O)N[C@H](C(=O)N[C@@H](CC(N)=O)C(=O)N[C@@H](Cc1c[nH]c2ccccc12)C(=O)N[C@@H](CC(C)C)C(=O)N[C@H](C(=O)N[C@@H](CCC(N)=O)C(=O)N[C@H](C(=O)N[C@@H](CCCCN)C(=O)N[C@H](C(=O)N[C@H](C(=O)N[C@@H](CC(=O)O)C(N)=O)[C@@H](C)O)[C@@H](C)CC)[C@@H](C)O)[C@@H](C)CC)[C@@H](C)CC` [Example 14] ({Malonyl(2,2-Me2,histaminyl)}-[Ala(1H-tetrazol-5-yl)]GSFSDE[Nle][dF]TILDLK(Alloc)AAK(Alloc)DFINWLIQTKITD-NH2), on human GLP2 receptor, the EC50 is 10 pM and the Emax stood at 101%. On human GLP1 receptor, the Emax was 96.1% and the EC50 is 12600 pM.

Turning to `C=CCOC(=O)NCCCC[C@H](NC(=O)[C@H](C)NC(=O)C(C)(C)NC(=O)[C@H](CCCCNC(=O)OCC=C)NC(=O)[C@H](CC(C)C)NC(=O)[C@H](CC(=O)O)NC(=O)[C@H](CC(C)C)NC(=O)C(C)(C)NC(=O)[C@@H](NC(=O)[C@@H](Cc1ccccc1)NC(=O)[C@H](CCCC)NC(=O)[C@H](CCC(=O)O)NC(=O)[C@H](CC(=O)O)NC(=O)[C@H](CO)NC(=O)[C@H](Cc1ccccc1)NC(=O)[C@H](CO)NC(=O)CNC(=O)[C@H](Cc1nn[nH]n1)NC(=O)C(C)(C)C(=O)NCCc1c[nH]cn1)[C@@H](C)O)C(=O)N[C@@H](CC(=O)O)C(=O)N[C@@H](Cc1ccccc1)C(=O)N[C@H](C(=O)N[C@@H](CC(N)=O)C(=O)N[C@@H](Cc1c[nH]c2ccccc12)C(=O)N[C@@H](CC(C)C)C(=O)N[C@H](C(=O)N[C@@H](CCC(N)=O)C(=O)N[C@H](C(=O)N[C@@H](CCCCN)C(=O)N[C@H](C(=O)N[C@H](C(=O)N[C@@H](CC(=O)O)C(N)=O)[C@@H](C)O)[C@@H](C)CC)[C@@H](C)O)[C@@H](C)CC)[C@@H](C)CC` [Example 16] ({Malonyl(2,2-Me2,histaminyl)}-[Ala(1H-tetrazol-5-yl)]GSFSDE[Nle][dF]T[Aib]LDLK(Alloc)[Aib]AK(Alloc)DFINWLIQTKITD-NH2), at human GLP2 receptor, the EC50 was 10 pM and the Emax is 102%. In addition, at human GLP1 receptor, the Emax turned out to be 96% and the EC50 is 15800 pM.

As to `C=CCOC(=O)NCCCC[C@H](NC(=O)[C@H](CC(C)C)NC(=O)[C@H](CC(=O)O)NC(=O)[C@H](CC(C)C)NC(=O)[C@@H](NC(=O)[C@@H](NC(=O)[C@@H](Cc1ccccc1)NC(=O)[C@H](CCCC)NC(=O)[C@H](CCC(=O)O)NC(=O)[C@H](CC(=O)O)NC(=O)[C@H](CO)NC(=O)[C@H](Cc1ccccc1)NC(=O)[C@H](CO)NC(=O)CNC(=O)[C@H](Cc1nn[nH]n1)NC(=O)C(C)(C)C(=O)NCCc1c[nH]cn1)[C@@H](C)O)[C@@H](C)CC)C(=O)NC(C)(C)C(=O)N[C@@H](C)C(=O)N[C@@H](CCCCN)C(=O)N[C@@H](CC(=O)O)C(=O)N[C@@H](Cc1ccccc1)C(=O)N[C@H](C(=O)N[C@@H](CC(N)=O)C(=O)N[C@@H](Cc1c[nH]c2ccccc12)C(=O)N[C@@H](CC(C)C)C(=O)N[C@H](C(=O)N[C@@H](CCC(N)=O)C(=O)N[C@H](C(=O)N[C@@H](CCCCN)C(=O)N[C@H](C(=O)N[C@H](C(=O)N[C@@H](CC(=O)O)C(N)=O)[C@@H](C)O)[C@@H](C)CC)[C@@H](C)O)[C@@H](C)CC)[C@@H](C)CC` [Example 18] ({Malonyl(2,2-Me2,histaminyl)}-[Ala(1H-tetrazol-5-yl)]GSFSDE[Nle][dF]TILDLK(Alloc)[Aib]AKDFINWLIQTKITD-NH2), the values for the EC50 on human GLP2 receptor and on human GLP1 receptor were 10 pM and 6310 pM, respectively. The Emax came to 102% at human GLP2 receptor and 94% at human GLP1 receptor.
